{
  "source": "patent US20230257385A1",
  "about": "“SALT AND SOLID FORMS OF TABERNANTHALOG” (priority 2021, published 2023)",
  "key": {"[1]": {"experiment": "Calibration curve of non-ionized Tabernanthalog / HPLC sample diluent selection", "assay_type": "physicochemical", "details": "acetonitrile/water", "from_the_text": "Separate portions of Tabernanthalog (native) were weighed out into aluminum boats and were charged to the relevant volumetric flasks. […] Peak areas of the calibrants were plotted against concentration to generate the corresponding calibration curve with slope 27622 and R^2 0.9917 (FIG. 437).\nIt is noted that tabernanthalog is insoluble in typical HPLC sample diluents, acetonitrile/water. Therefore, DMSO and water were investigated as sample diluents.\nThus, DMSO/water (1/1, v/v) was selected as the appropriate diluent composition to perform the study and generate the calibration curve, for the SIF panel solubility."}, "[2]": {"details": "reported by Dong et al., Olson et al., Cameron et al.; cited from earlier work"}, "[3]": {"target": "5-HT2A (Homo sapiens, UniProt P28223)", "sequence (P28223 whole entry)": "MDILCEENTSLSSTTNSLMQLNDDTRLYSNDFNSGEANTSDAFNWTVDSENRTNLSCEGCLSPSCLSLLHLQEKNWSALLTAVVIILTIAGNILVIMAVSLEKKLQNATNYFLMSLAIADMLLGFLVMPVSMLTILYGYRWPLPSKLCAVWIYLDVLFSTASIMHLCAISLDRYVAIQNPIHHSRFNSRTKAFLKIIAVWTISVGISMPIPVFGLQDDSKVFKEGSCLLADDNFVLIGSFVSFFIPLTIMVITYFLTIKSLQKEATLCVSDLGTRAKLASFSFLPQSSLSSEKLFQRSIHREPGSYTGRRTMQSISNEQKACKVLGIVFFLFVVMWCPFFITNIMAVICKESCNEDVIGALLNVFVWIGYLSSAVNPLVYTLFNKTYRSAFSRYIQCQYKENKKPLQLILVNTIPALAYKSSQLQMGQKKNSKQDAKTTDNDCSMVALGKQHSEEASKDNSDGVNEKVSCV", "details": "reported by Dong et al., Olson et al., Cameron et al.; cited from earlier work"}, "[4]": {"experiment": "Solubility determinations in SIF buffers FaSSIF, FeSSIF, FaSSGF (Example 8, Experiment 5)", "details": "37 °C, thermodynamic from solid", "procedure,_shortened": "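Suspensions in FaSSIF, FeSSIF or FaSSGF held at 37° C for 24 h, sampled at set time points and centrifuged. Pellets checked by XRPD, wet and dried, for form change.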"}, "[5]": {"experiment": "Dynamic vapour sorption (DVS) of selected salts (Example 8)", "assay_type": "physicochemical", "details": "0 to 90 to 0% RH, 25° C., dm/dt 0.002%/min", "procedure,_shortened": "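Sorption/desorption isotherms on 20–50 mg sample at 25°C after 60 min at 0% RH: 5% steps to 30%, 10% steps to 90%, then reverse. Equilibrium criterion dm/dt 0.002%/min; kinetic and isotherm curves derived.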"}, "[6]": {"experiment": "Equilibrium humidity evaluation 75% RH/40° C., 10 days (Example 8, Experiment 6)", "assay_type": "physicochemical", "details": "75% RH/40° C.", "procedure,_shortened": "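Tabernanthalog salt powders (100 mg) were spread evenly in open vials and held at 40 °C and 75% RH. Sub-samples taken at 5 and 10 days were analysed by ^1H NMR, HPLC, XRPD, DSC, TGA and PLM for phase change, chemical degradation and residual solvent.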"}, "[7]": {"experiment": "DVS analyses of the monofumarate salt (Example 5, Experiment Reference 4)", "assay_type": "physicochemical", "details": "mass equilibrated, 0 to 90% to 0% RH, 25° C.", "description": "(§1) The moisture sorption properties of the feed API were analyzed by DVS Intrinsic instrument (Surface Measurement System). Approximately 20 to 50 mg of API was weighed onto an aluminum pan and loaded into the instrument equilibrated at 25° C. The sample was equilibrated under a dry atmosphere (0% relative humidity) for 60 minutes, before increasing the humidity from 0% to 30% at 5% step increment and from 30% to 90% at 10% step increment. A desorption cycle was also applied from 90% to 30% (10% step decrement) and from 30% to 0% (5% step decrement). A rate of change in mass per time unit (dm/dt) of 0.002%/min was set as the equilibrium parameter. Kinetic and isotherm graphs were calculated.\nas §1, with “feed API (active pharmaceutical ingredient) were analyzed” for “feed API were analyzed”, “step decrement). […] Kinetic and” for “step decrement). A rate of change in mass per time unit (dm/dt) of 0.002%/min was set as the equilibrium parameter. Kinetic and”, “were calculated. […]” for “were calculated.”"}, "[8]": {"experiment": "Heat-up/cool-down crystallisation screen of sorbate salt (Example 10, Experiments 5, 8)", "assay_type": "physicochemical", "details": "Experiment 8; repeat of HUCD crystallisations aiming at Pattern #1 (water) and Pattern #6 (heptane/ethyl formate); wet pellet", "description": "The relevant solvent (0.225 ml, 3.0 vol) was added to the appropriate vial and the suspensions were stirred and warmed to temperature. If dissolution was not observed, further solvent was added until the solute dissolved, or aliquots of a secondary co-solvent were added to complete dissolution. Once dissolved, the solutions were left to cool down and stand undisturbed under sub-ambient conditions for several days. After crystallisation was judged complete, the products were isolated by centrifugation and the pellets were dried at 40° C. under reduced pressure. Products from the crystallisation (wet and dry) were initially analysed by XRPD (9-minute method), further analyses of certain products were performed by ^1H NMR, DSC and TGA, if the diffraction pattern indicated differences."}, "[9]": {"experiment": "Heat-up/cool-down crystallisation screen of sorbate salt (Example 10, Experiments 5, 8)", "assay_type": "physicochemical", "details": "Experiment 8; repeat of HUCD crystallisations; dried ca. 2 h under N2 flux at ambient temperature"}},
  "data": [
    {"smiles": "COc1ccc2c3c([nH]c2c1)CCN(C)CC3", "note": "[tabernanthalog, 8-methoxy-3-methyl-1,2,3,4,5,6-hexahydroazepino[4,5-b]indole]", "values": [
      {"measurement": "solubility in typical HPLC sample diluents", "setting": "[1]", "value": "insoluble"},
      {"measurement": "hallucinogenic effect", "setting": "[2]", "value": "non-hallucinogenic"},
      {"measurement": "5-HT2A activity", "setting": "[3]", "value": "have 5-HT2A activity"}
    ]},
    {"smiles": "COc1ccc2c3c([nH]c2c1)CCN(C)CC3.O=C(O)/C=C/C(=O)O", "note": "[8-Methoxy-3-methyl-2,4,5,6-tetrahydro-1H-azepino[4,5-b]indole fumarate salt (polymorph Form A)]", "values": [
      {"measurement": "solubility at 24 h", "setting": "[4]; pH 1.6, fassgf or other biorelevant", "value": "> 30", "unit": "mg/mL"},
      {"measurement": "solubility at 24 h", "setting": "[4]; pH 5, fessif", "value": "> 30", "unit": "mg/mL"},
      {"measurement": "solubility at 24 h", "setting": "[4]; pH 6.5, fassif", "value": "> 30", "unit": "mg/mL"},
      {"measurement": "DVS sorption/desorption isotherm", "setting": "[5]", "value": "hygroscopic isotherm, with negligible hysteresis"},
      {"measurement": "change in chemical purity (trended HPLC)", "setting": "[6]; after 10 days", "value": "slight decrease in chemical purity"},
      {"measurement": "water uptake / hydrate formation (TGA, DSC)", "setting": "[6]; t=5 d and t=10 d", "value": "no significant water uptake"},
      {"measurement": "powder diffraction pattern versus input (form stability)", "setting": "[6]; t=5 days and t=10 days", "value": "resembled the input phase"},
      {"measurement": "DVS isotherm", "setting": "[7]", "value": "hygroscopic isotherm with negligible hysteresis"}
    ]},
    {"smiles": "CC=CC=CC(=O)O.COc1ccc2c3c([nH]c2c1)CCN(C)CC3", "note": "[Experiment 8-Sample B]", "values": [
      {"measurement": "XRPD (centrifuged, wet)", "setting": "[8]", "value": "Form A"},
      {"measurement": "XRPD (under nitrogen flow)", "setting": "[9]", "value": "Form A"}
    ]}
  ]
}
